Results on four compounds are retold here after patent US10238621B2, “9,10-α,α-OH-taxane analogs and methods for production thereof” (priority 2003, dated 2019).

Holding throughout (type): cell-based
One test has as its system Neuroblastoma SK-N-AS. Kind of test: Inhibition of cell growth, Neuroblastoma SK-N-AS (MDR −, tubulin wild type).
The test system of test [1] is Breast Cancer MCF-7 NCI-AR. Kind of test: Inhibition of cell growth, Breast Cancer MCF-7 NCI-AR (MDR +, tubulin wild type). The note with it: for Inhibition: MCF-7 NCI-AR.
Test [2] deals with Ovarian Carcinoma 1A9PTX10. Nature of the test: Inhibition of cell growth, Ovarian Carcinoma 1A9PTX10 (MDR +, tubulin mutant).
Test [3] relates to Squamous Cell Carcinoma FADU. Nature of the test: Inhibition of cell growth, Squamous Cell Carcinoma FADU (MDR −, tubulin wild type). As to conditions: concentration 0.05 ug/mL.
Test [4] relates to MDR sensitive cancer cell lines. Kind of test: Inhibition of cell growth against MDR sensitive cancer cell lines. The note with it: result in words.
Setting [5] is: Homo sapiens, MCF7, MCF-7 NCI-AR, concentration 0.5 ug/mL.

As to `CC(=O)O[C@H]1C(=O)[C@@]2(C)[C@H]([C@H](OC(=O)c3ccccc3)[C@]3(O)C[C@H](OC(=O)[C@H](O)[C@@H](NC(=O)c4ccccc4)c4ccccc4)C(C)=C1C3(C)C)[C@]1(OC(C)=O)CO[C@@H]1C[C@@H]2O` [Paclitaxel, reference compound], the Inhibition (in general, the percentage by which the read-out fell short of the control) is reported as 54% with Neuroblastoma SK-N-AS (concentration 0.1 ug/mL); 55% in test [1] (concentration 40 ug/mL); 55% in test [2] (1A9PTX10, concentration 5 ug/mL); 47% in test [3].
Take `C=CC1O[C@H]2C[C@H]3OC[C@@]3(OC(C)=O)[C@H]3[C@H](OC(=O)c4ccccc4)[C@]4(O)C[C@H](OC(=O)[C@H](O)[C@H](CC(C)C)NC(=O)OC(C)(C)C)C(C)=C([C@H](OC(C)=O)[C@H](O1)[C@]23C)C4(C)C` (stereo partly drawn) [TPI 287, 7,9-acrolein acetal-10-α-acetyl-2′-R,S-hydroxy-3′-S-isobutyl-3′-N-t-butoxy carbonyl taxane]: the “inhibition of cell growth against MDR sensitive cancer cell lines” value (from here on “inhibition of cell growth”) in test [4] is reported as “excellent inhibition of cell growth”. Also, the inhibition (in general, the share of the control response that was lost under treatment) at 0.05 µg/mL in the test with Neuroblastoma SK-N-AS (Homo sapiens, concentration 0.05 ug/mL) was determined as 58%; in test [3] (Homo sapiens), 56%. In test [1] (Homo sapiens, MCF7, MCF-7 NCI-AR, concentration 0.031 ug/mL), 0.031 µg/mL produced 13% inhibition. Besides, the inhibition at 0.061 µg/mL in test [1] (Homo sapiens, MCF7, MCF-7 NCI-AR, concentration 0.061 ug/mL) stood at 22%. Further, the inhibition at 0.125 µg/mL in test [1] (Homo sapiens, MCF7, MCF-7 NCI-AR, concentration 0.125 ug/mL) turned out to be 37%. This compound registered an inhibition at 0.25 µg/mL in test [1] (Homo sapiens, MCF7, MCF-7 NCI-AR, concentration 0.25 ug/mL) of 47%. The inhibition at 0.5 µg/mL in test [1] (setting [5]) came out at 80%. This compound also returned an inhibition at 0.1 µg/mL in test [2] (Homo sapiens, 1A9/ptx-10, 1A9PTX10, concentration 0.1 ug/mL) of 51%. Moreover, in test [2] (Homo sapiens, 1A9/ptx-10, 1A9PTX10, concentration 0.2 ug/mL), the inhibition at 0.2 µg/mL was 85%.
On to `C=CC1O[C@H]2C[C@H]3OC[C@@]3(OC(C)=O)[C@H]3[C@H](OC(=O)c4ccccc4)[C@]4(O)C[C@H](OC(=O)[C@H](O)[C@@H](NC(=O)c5ccccc5)c5ccccc5)C(C)=C([C@H](OC(C)=O)[C@H](O1)[C@]23C)C4(C)C` (stereo partly drawn) [TPI 251], for which, in test [4], the “inhibition of cell growth” value is given as “excellent inhibition of cell growth”. For the same compound, the inhibition at 0.5 µg/mL in test [1] (setting [5]) worked out at 45%; in test [2] (Homo sapiens, 1A9/ptx-10, 1A9PTX10, concentration 0.5 ug/mL), 96%. In test [1] (Homo sapiens, MCF7, MCF-7 NCI-AR, concentration 1.0 ug/mL), this compound registered an inhibition at 1 µg/mL of 65%. For the same compound, in test [1] (Homo sapiens, MCF7, MCF-7 NCI-AR, concentration 2.0 ug/mL), the inhibition at 2 µg/mL is 94%. In test [2] (Homo sapiens, 1A9/ptx-10, 1A9PTX10, concentration 0.25 ug/mL), the inhibition at 0.25 µg/mL was 93%.
In the case of `C=CC1O[C@H]2C[C@H]3OC[C@@]3(OC(C)=O)[C@H]3[C@H](OC(=O)c4ccccc4)[C@]4(O)C[C@H](OC(=O)[C@H](O)[C@@H](NC(=O)c5ccccc5)c5ccccc5)C(C)=C([C@H](OC(C)=O)[C@H](O1)[C@]23C)C4(C)C` (stereo partly drawn) [TPI 285], the “inhibition of cell growth” value in test [4] is given as “excellent inhibition of cell growth”. The Inhibition in test [1] (concentration 0.5 ug/mL) is 41%; in test [1] (concentration 1.0 ug/mL), 51%; in test [1] (concentration 2.0 ug/mL), 85%.
